Data on six compounds can be found in ChEMBL document CHEMBL3217661, “Selective inhibition of E. coli 1-deoxy-D-xylulose-5-phosphate synthase by acetylphosphonates()” (Medchemcomm, 2012).

Test [1] addresses T1, 1-deoxy-D-xylulose-5-phosphate synthase (Escherichia coli (strain K12), UniProt P77488).
T1 sequence (P77488 whole entry): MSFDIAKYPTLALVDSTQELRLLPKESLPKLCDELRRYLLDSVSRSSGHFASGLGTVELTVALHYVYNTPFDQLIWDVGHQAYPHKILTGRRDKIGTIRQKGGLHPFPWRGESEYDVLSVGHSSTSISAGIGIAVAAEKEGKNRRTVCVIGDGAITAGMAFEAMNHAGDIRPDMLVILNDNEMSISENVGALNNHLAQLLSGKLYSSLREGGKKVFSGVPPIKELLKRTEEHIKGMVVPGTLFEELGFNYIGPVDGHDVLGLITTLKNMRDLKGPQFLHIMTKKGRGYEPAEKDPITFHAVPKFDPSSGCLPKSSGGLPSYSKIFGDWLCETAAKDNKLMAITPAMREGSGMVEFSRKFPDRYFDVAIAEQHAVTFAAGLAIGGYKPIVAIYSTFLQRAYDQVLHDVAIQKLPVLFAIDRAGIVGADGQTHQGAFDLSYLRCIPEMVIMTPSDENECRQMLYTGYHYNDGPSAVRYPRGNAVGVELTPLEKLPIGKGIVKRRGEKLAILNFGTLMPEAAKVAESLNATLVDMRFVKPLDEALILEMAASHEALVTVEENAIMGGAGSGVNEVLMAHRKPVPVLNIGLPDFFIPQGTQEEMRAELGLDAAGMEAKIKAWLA
Kind of test: Competitive inhibition of ThDP-dependent Escherichia coli DXP synthase using pyruvate as substrate assessed as NADPH consumption by spectrophotometric coupled assay.

The nature of test [2]: Inhibition of ThDP-dependent pyruvate dehydrogenase E1 subunit in porcine heart using pyruvate as substrate by spectrophotometric coupled assay. Details: species or system Sus scrofa.
Test [3] in a line: Inhibition of ThDP-dependent Saccharomyces cerevisiae transketolase by spectrophotometric coupled assay.
Test [4] in a line: Selectivity ratio of Ki for pyruvate dehydrogenase E1 subunit in porcine heart to Ki for Escherichia coli DXP synthase.

As usually defined, the Ki is the equilibrium dissociation constant of an inhibitor or competing ligand from its target. As to `COP(=O)(O)C(C)=O`, the Ki was 0.96 µM in test [1], 29.9 µM in test [2] and over 1000 µM in test [3]. In addition, in test [4], the Ratio Ki came out at 31.

Regarding `CCC(=O)P(=O)(O)OC`, the values for the Ki in test [1], in test [2] and in test [3] were 258 µM, over 1000 µM and over 1000 µM, respectively.

Take `CCCCC(=O)P(=O)(O)OC`: the Ki in test [1], in test [2] and in test [3] was over 1000 µM throughout.

With `CCCC(=O)P(=O)(O)OC`, the Ki in test [1], in test [2] and in test [3] was over 1000 µM in each case.

For `CCOP(=O)(O)C(C)=O`, the Ki is 6.7 µM in test [1], 46.6 µM in test [2] and over 1000 µM in test [3].

For the compound `CCCCOP(=O)(O)C(C)=O`, the inhibition constant Ki in test [1] was 5.6 µM; in test [2] it was 335 µM; in test [3], over 1000 µM. Further, in test [4], the Ratio Ki came out at 60.
